# Reference: patent US20250353812A1, “2,6-DIBENZYLIDENECYCLOHEXANONE OXIME COMPOUND AND PREPARATION METHOD THEREFOR AND USE THEREOF” (WENZHOU MEDICAL UNIVERSITY, priority 2022, published 2025)
# What was measured:
# IL-6 = assay: Inhibition of IL-6 release from J774A.1 macrophages stimulated by LPS (ELISA); assay type: cell-based; details: 10 μM compound pretreatment 2 h, then 0.5 μg/mL LPS 22 h, LPS control = 100, FIG. 1
# Procedure: (§1) The present invention tested the dose-effect relationship of some of the compounds of Examples in inhibiting the release of IL-6 and TNF-α from J774A.1 macrophages stimulated by LPS. The specific method is as follows: 1.2×10^6 […] macrophages were cultured by DMEM culture solution at 37° C., the culture solution was renewed after 24 h, the tested example compound (at a final concentration of 10 μM) was added for pretreatment for 2 h and then continuously treated by 0.5 μg/mL of LPS for 22 h, the culture solution was collected, and the content of IL-6 and TNF-α was detected by ELISA method. The total protein concentration was measured by collecting cells, the ELISA results were divided by the corresponding total protein concentration and calibrated by the IL-6 and TNF-α content of LPS control group as 100, and the average and error values were calculated.
# TNF-α = assay: Inhibition of TNF-α release from J774A.1 macrophages stimulated by LPS (ELISA); assay type: cell-based; details: 10 μM compound pretreatment 2 h, then 0.5 μg/mL LPS 22 h, LPS control = 100, FIG. 2
# Procedure: as §1
# [1] = tested on: liver inflammation in obese mice; assay: Protective effect on liver inflammation in obese mice (high-fat diet); assay type: in vivo; details: HFD mice; Example 9 12 mg/kg, Example 2 10 mg/kg, intragastric gavage every two days for 8 weeks
# Procedure: (§2) A suspension of 0.5% sodium carboxymethylcellulose and the compounds of Examples was prepared for intragastric administration. The blank control group and the high-fat diet obesity model group were administrated with equal doses of solvent (0.5% CMC-Na solution) intragastrically. The mice were first adaptively raised for 1 week, and when the mice were 8 weeks old, they were randomly divided into 2 groups (A: Con, B: HFD). Group A was fed with normal mouse feed, and mice in group B were fed with 60% high-fat feed for 16 weeks. After the model was successfully established at 12 weeks, the mice in group B were randomly divided into three groups (i: HFD, ii: HFD+Example 9, 12 mg/kg, iii: HFD+Example 2, 10 mg/kg). The body weight of the mice was measured and recorded every week, and groups ii and iii were treated with the compounds of Examples by intragastric gavage every two days for 8 weeks. After 24 weeks, the mice were anesthetized and sacrificed, and blood samples were collected and centrifuged to collect serum for various serum biochemical tests; the liver was removed, and the liver tissue was cut and embedded (frozen and paraffin) for immunohistochemistry and other analyses. The remaining liver tissues were snap frozen in liquid nitrogen and stored in a −80° C. freezer.
# Taking the compounds of Examples 2 and 9 as examples, the experimental results are shown in FIGS. 3A-3D and FIGS. 4A-4E, where 2 and 9 represent the compounds of Example 2 and Example 9, respectively. Inflammation was assessed by examining macrophage infiltration in the liver using the macrophage-specific marker F4/80 staining. […] In addition, the expression of TNF-α, IL-6 and IL-1β genes in liver tissue was detected.
# [2] = tested on: liver lipid metabolism of obese mice; assay: Protective effect on liver lipid metabolism of obese mice (high-fat diet); assay type: in vivo; details: HFD mice; Example 9 12 mg/kg, Example 2 10 mg/kg, intragastric gavage every two days for 8 weeks
# Procedure: as §2
# The liver lipid metabolism of obese mice is taken as an example. […] It can be clearly seen from the above test results that the compound having the structure of formula I of the present invention has a protective effect on the liver lipid metabolism of obese mice.
structure (smiles),measurement,setting,value
"CCCON=C1/C(=C/c2ccccc2C(F)(F)F)CCC/C1=C\c1ccccc1C(F)(F)F [Example 2, 2,6-(E,E)-(2-(trifluoromethyl)benzylidene)cyclohexan-1-one propyl oxime]",inhibitory effect on the release of IL-6,IL-6,significant inhibitory effect
same,inhibitory effect on the release of TNF-α,TNF-α,significant inhibitory effect
same,macrophage infiltration in the liver (F4/80 staining),[1],decreased
same,upregulation of IL-1β gene in mouse liver tissue (mRNA),[1],significantly alleviated
same,upregulation of IL-6 gene in mouse liver tissue (mRNA),[1],significantly alleviated
same,upregulation of TNF-α gene in mouse liver tissue (mRNA),[1],significantly alleviated
same,"dyslipidemia caused by high-fat diet feeding (serum triglycerides, low-density lipoprotein cholesterol, total cholesterol)",[2],significantly alleviated
same,lipid accumulation in the liver (H&E staining),[2],significantly alleviated
same,"lipid accumulation in the liver (oil red staining of frozen sections, quantified)",[2],significantly alleviates
